Measured values as given in ChEMBL document CHEMBL4261594, “Unexpected AChE inhibitory activity of (2E)α,β-unsaturated fatty acids” (Bioorg Med Chem Lett, 2018).

What was measured:
Acetylcholinesterase [1] = target: T1, Acetylcholinesterase (Electrophorus electricus, UniProt O42275); experiment: Inhibition of electric eel AChE using acetylthiocholine iodide as substrate preincubated for 20 mins followed by substrate addition and measured at 1 min intervals for 30 mins by Ellman's method
Acetylcholinesterase [2] = target: T1, Acetylcholinesterase; experiment: Mixed type inhibition of electric eel AChE using acetylthiocholine iodide as substrate preincubated for 20 mins followed by substrate addition and measured at 1 min intervals for 30 mins by Dixon plot analysis
Acetylcholinesterase [3] = target: T1, Acetylcholinesterase; experiment: Mixed type inhibition of electric eel AChE using acetylthiocholine iodide as substrate preincubated for 20 mins followed by substrate addition and measured at 1 min intervals for 30 mins by Cornish-Bowden plot analysis

T1 sequence (O42275 whole entry): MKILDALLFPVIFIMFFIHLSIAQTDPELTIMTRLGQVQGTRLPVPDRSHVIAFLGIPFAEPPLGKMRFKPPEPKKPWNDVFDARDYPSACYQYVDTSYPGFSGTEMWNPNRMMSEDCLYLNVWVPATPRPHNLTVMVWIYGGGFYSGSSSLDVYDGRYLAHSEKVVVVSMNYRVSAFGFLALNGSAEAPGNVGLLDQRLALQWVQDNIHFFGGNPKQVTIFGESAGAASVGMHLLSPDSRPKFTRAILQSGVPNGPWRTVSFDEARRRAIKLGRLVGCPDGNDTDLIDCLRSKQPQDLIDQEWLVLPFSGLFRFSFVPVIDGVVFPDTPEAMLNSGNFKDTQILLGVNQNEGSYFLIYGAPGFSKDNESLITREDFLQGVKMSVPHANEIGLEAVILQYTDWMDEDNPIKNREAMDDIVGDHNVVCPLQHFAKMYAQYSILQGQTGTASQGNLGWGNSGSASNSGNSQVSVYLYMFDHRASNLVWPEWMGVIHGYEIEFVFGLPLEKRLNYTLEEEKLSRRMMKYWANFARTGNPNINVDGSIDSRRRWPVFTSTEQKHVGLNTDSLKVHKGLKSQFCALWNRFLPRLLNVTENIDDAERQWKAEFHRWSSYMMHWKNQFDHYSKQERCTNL

## CCCCCCCCCCCCCCCCC/C=C/C(=O)O
Acetylcholinesterase [1]; read-out: IC50
  IC50: 5 µM
Acetylcholinesterase [2]
  Ki: 1.51 µM
Acetylcholinesterase [3]
  Ki: 7.15 µM

## CCCCCCCCCCCCCCCCCCC/C=C/C(=O)O
Acetylcholinesterase [1]; read-out: IC50
  IC50: 11.7 µM

## CCCCCCCCCCCCC/C=C/C(=O)O
Acetylcholinesterase [1]; read-out: IC50
  IC50: 7.9 µM

## CCCCCCCCCCCCCCC/C=C/C(=O)O
Acetylcholinesterase [1]; read-out: IC50
  IC50: 4.3 µM
Acetylcholinesterase [2]
  Ki: 3.21 µM
Acetylcholinesterase [3]
  Ki: 5.51 µM

## CCCCCCCCCCCCCCCCCCCC(=O)O [ARACHIDIC ACID]
Acetylcholinesterase [1]; read-out: IC50
  IC50: 12.8 µM

## CCCCCCCCCCCCCCCCCCCCCC(=O)O [BEHENIC ACID]
Acetylcholinesterase [1]
  IC50: Nd(Insoluble)

## CCCCCCCCCCCCCCCC(=O)O [PALMITIC ACID]
Acetylcholinesterase [1]; read-out: IC50
  IC50: 10.1 µM

## CCCCCCCCCCCCCCCCCC(=O)O [STEARIC ACID]
Acetylcholinesterase [1]; read-out: IC50
  IC50: 7.5 µM
Acetylcholinesterase [2]
  Ki: 4.4 µM
Acetylcholinesterase [3]
  Ki: 3.62 µM
